The values below come from patent US7141573B2, “Polypharmacophoric agents” (Molecular Insight Pharmaceuticals, Inc., priority 2000, dated 2006).

Like-named read-outs stand apart in the source and are kept apart here.

Assay [1] deals with T1, human dopamine transporter (hDAT) (Homo sapiens, UniProt Q01959).
T1 construct: expressed in transfected cells; host or cells: HEK-293 cells stably expressing recombinant hDAT
In words: [125I]RTI-55 binding to human dopamine transporter in HEK-293 hDAT membranes. The conditions noted are these: for Hill Coefficient: [125I]RTI-55 binding. As to the method: To characterize drug interactions with the human dopamine transporter (hDAT), drugs (approximately 30 nM to 10 μM) were incubated with a membrane preparation from HEK-293 cells stably expressing the recombinant hDAT, [^125I]RTI-55 (34 pM), and buffer in a final volume of 250 μl. Independent assays were conducted 2 to 3 times with duplicate determinations. The Cheng-Prusoff equation was used to convert IC50 values to Ki values.

For assay [2], the target named is T2, hDAT (Homo sapiens, UniProt Q01959).
T2 construct: expressed in transfected cells; host or cells: HEK-293 cells stably expressing recombinant hDAT
T2 sequence (Q01959 whole entry): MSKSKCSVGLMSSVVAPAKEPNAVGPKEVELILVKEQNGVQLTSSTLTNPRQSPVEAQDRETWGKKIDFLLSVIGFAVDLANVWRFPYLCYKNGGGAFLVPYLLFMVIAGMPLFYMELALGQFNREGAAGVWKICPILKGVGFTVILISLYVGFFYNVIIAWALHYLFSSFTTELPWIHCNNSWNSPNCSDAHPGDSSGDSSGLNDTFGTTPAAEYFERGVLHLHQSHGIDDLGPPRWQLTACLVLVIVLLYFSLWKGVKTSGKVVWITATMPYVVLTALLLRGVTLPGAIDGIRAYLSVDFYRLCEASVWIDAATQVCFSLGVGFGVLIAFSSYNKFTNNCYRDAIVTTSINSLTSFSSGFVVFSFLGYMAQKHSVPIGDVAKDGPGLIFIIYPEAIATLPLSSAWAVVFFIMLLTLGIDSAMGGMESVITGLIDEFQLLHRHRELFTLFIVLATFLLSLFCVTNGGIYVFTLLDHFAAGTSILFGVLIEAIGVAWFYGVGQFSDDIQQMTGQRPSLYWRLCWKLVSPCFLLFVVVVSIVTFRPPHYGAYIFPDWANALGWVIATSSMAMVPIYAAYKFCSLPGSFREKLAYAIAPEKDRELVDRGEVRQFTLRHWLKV
In words: [3H]DA uptake in HEK hDAT cells. It is filed as cell-based. The conditions noted are these: Table II.

Assay [3] addresses T3, hSERT (Homo sapiens, UniProt P31645).
T3 construct: expressed in transfected cells; host or cells: HEK cells expressing hSERT
In words: [125I]RTI-55 binding in HEK hSERT membranes. Particulars: Table II; bound given in μM.

Assay [4] concerns the target T4, hNET (Homo sapiens, UniProt P23975).
T4 construct: expressed in transfected cells; host or cells: HEK cells expressing hNET
In words: [3H]NE uptake in HEK-hNET cells. In kind it is cell-based. Particulars: Table II.

Assay [5] has as its target T4, hNET. Put plainly: [125I]RTI-55 binding in HEK-hNET membranes. Particulars: Table II.
In assay [6] the target is T3, hSERT. In words: [3H]5HT uptake in HEK-hSERT cells. It is filed as cell-based. Particulars: Table II; bound given in μM.
The mark [7] stands for this setting: Table II, bound given in μM, read-out: [125I]RTI-55 Binding in HEK hDAT Membranes Ki.
Where [8] appears, read: bound given in μM, read-out: [3H]DA Uptake in HEK hDAT cells IC50.
[9] abbreviates: bound given in μM, read-out: [3H]NE Uptake in HEK-hNET cells IC50.
Setting [10] is: read-out: [125I]RTI-55 Binding in HEK-hNET Membranes KI (nM) sem.
Setting [11] is: read-out: [3H]NE Uptake in HEK-hNET cells IC50 (nM) sem.
[12] abbreviates: bound given in μM, read-out: [125I]RTI-55 Binding in HEK-hNET Membranes KI.
[13] abbreviates: Table 1, [125I]RTI-55 34 pM, HEK-293 hDAT membranes, mean +/- range or s.e.m. of 2 or 3 experiments, read-out: Ki value.
Where [14] appears, read: Table 1, HEK-293 hDAT membranes.
Setting [15] is: Table II, read-out: [125I]RTI-55 Binding in HEK hDAT Membranes Ki (nM) sem.
[16] abbreviates: read-out: [3H]DA Uptake in HEK hDAT cells IC50 (nM) sem.

T4 sequence (P23975 whole entry): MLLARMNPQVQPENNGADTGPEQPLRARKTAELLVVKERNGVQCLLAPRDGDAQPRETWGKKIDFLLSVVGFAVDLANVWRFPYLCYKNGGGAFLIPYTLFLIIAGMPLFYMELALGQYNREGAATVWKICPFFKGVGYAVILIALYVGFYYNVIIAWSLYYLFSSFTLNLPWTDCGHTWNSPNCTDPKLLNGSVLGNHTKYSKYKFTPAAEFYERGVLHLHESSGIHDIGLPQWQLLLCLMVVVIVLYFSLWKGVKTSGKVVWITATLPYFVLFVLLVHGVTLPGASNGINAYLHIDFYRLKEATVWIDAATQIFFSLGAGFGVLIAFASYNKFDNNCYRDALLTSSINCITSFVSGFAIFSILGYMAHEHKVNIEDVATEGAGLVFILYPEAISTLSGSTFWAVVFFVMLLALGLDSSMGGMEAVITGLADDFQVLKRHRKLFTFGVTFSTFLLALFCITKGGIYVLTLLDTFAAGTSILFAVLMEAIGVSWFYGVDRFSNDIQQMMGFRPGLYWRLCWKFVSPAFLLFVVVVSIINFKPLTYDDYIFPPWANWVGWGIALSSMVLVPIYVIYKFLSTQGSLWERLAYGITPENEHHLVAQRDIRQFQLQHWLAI
T3 sequence (P31645 whole entry): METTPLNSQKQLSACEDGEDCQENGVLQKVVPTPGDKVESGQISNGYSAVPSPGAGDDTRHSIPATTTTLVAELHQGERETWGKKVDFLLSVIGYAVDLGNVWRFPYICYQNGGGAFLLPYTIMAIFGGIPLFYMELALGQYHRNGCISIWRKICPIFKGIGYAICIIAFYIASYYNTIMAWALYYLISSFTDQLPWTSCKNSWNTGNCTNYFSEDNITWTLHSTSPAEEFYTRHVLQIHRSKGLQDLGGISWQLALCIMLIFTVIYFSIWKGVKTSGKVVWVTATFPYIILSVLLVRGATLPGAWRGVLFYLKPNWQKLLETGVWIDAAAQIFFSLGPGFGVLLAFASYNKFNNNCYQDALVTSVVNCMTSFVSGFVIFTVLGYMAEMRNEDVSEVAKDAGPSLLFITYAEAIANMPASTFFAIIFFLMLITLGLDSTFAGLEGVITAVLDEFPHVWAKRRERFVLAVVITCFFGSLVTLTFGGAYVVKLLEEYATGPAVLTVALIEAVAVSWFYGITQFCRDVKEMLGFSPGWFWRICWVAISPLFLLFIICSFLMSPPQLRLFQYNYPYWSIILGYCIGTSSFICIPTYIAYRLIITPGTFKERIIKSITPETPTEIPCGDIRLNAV
T1 sequence (Q01959 whole entry): as the sequence (Q01959 whole entry) above

What is called Ki is the dissociation constant of the complex between target and ligand, obtained from inhibition or displacement. Usually IC50 stands for the midpoint of a concentration-inhibition curve. On to `O=C(O)C(/C=C/c1ccccc1)NC1CCc2ccccc21` (stereo not shown) [RNH-Z-39], for which the Ki is more than 10 µM in assay [1] (setting [7]), more than 10 µM in assay [3] and 2920 ± 1230 nM in assay [5] (setting [10]). The IC50 in assay [2] (setting [8]), in assay [4] (setting [9]) and in assay [6] was more than 10 µM in each case. In assay [5], the “[125I]RTI-55 Binding in HEK-hNET Membranes Hill slope” value is reported as −0.96 ± 0.17.

`c1ccc(CCCN2CCN(CCOC(c3ccccc3)c3ccccc3)CC2)cc1` [GBR-12935, reference compound]: in assay [4] (setting [11]), the IC50 worked out at 0.165 ± 0.017 µM. In addition, the “[125I]RTI-55 Binding in HEK-hNET Membranes Hill slope” value in assay [5] is reported as −0.90 ± 0.07. Moreover, the Ki in assay [5] (setting [10]) turned out to be 628 ± 59 nM.

With `O=C(O)C(/C=C/c1ccccc1)N1CCC(O)(c2ccc(Cl)cc2)CC1` (stereo not shown) [RNH-Z-48], the Ki in assay [1] (setting [7]) is more than 10 µM; in assay [3], more than 10 µM; in assay [5] (setting [12]), more than 10000 nM. For the same compound, the concentration for half-maximal inhibition (IC50) in assay [2] (setting [8]), in assay [4] (setting [9]) and in assay [6] was more than 10 µM each time.

Consider `O=C(O)C(/C=C/c1ccccc1)N1CCC(c2ccccc2)CC1` (stereo not shown) [RNH-Z-24], for which the Ki is more than 10 µM in assay [1] (setting [7]), more than 10 µM in assay [3] and more than 10000 nM in assay [5] (setting [12]). Also, the IC50 in assay [2] (setting [8]) is more than 10 µM; in assay [4] (setting [11]), 0.204 ± 0.085 µM; in assay [6], more than 10 µM.

For the compound `CN(CCCN1c2ccccc2C=Cc2ccccc21)C(/C=C/c1ccccc1)C(=O)O` (stereo not shown) [RNH-Z-52], the Ki in assay [1] (setting [7]) is more than 10 µM; in assay [3], more than 10 µM; in assay [5] (setting [12]), more than 10000 nM. For the same compound, the IC50 in assay [2] (setting [8]), in assay [4] (setting [9]) and in assay [6] was more than 10 µM each time.

Take `O=C(NCc1cccc2ccccc12)C(/C=C/c1ccccc1)N1CCC(c2ccccc2)CC1` (stereo not shown) [RNH-Z-31]: the Ki was 7.73 ± 3.07 µM in assay [1] (setting [13]), 7.73 ± 3.07 µM in assay [1] (setting [15]), more than 10 µM in assay [3] and more than 10000 nM in assay [5] (setting [12]). In addition, the “Hill Coefficient” value in assay [1] (setting [14]) is −7.0 ± 4.5. Further, the “[125I]RTI-55 Binding in HEK hDAT Membranes Hill slope” value in assay [1] (Table II) is −7.00 ± 4.54. Moreover, the IC50 in assay [2] (setting [8]), in assay [4] (setting [9]) and in assay [6] was more than 10 µM each time.

On to `O=C(O)C(/C=C/c1ccccc1)C1CCN(CCOC(c2ccccc2)c2ccccc2)CC1` (stereo not shown) [ZHN-92], for which the Ki in assay [1] (setting [13]) was 3.71 ± 1.25 µM; in assay [3] it was more than 10 µM; in assay [5] (setting [12]), more than 10000 nM. The “Hill Coefficient” value in assay [1] (setting [14]) is given as −1.2 ± 0.2. The “[125I]RTI-55 Binding in HEK hDAT Membranes Hill slope” value in assay [1] (Table II) was −1.15 0.15. Moreover, the IC50 was 2.01 ± 0.428 µM in assay [2] (setting [16]), 0.113 ± 0.015 µM in assay [4] (setting [11]) and more than 10 µM in assay [6].

For `CN(CCC=C1c2ccccc2CCc2ccccc21)C(/C=C/c1ccccc1)C(=O)O` (stereo not shown) [RNH-Z-44], the Ki in assay [1] (setting [13]) was 3.3 ± 0.855 µM; in assay [1] (setting [15]), 3.3 ± 0.855 µM; in assay [3], more than 10 µM; in assay [5] (setting [12]), more than 10000 nM. Moreover, in assay [1] (setting [14]), the “Hill Coefficient” value was −2.2 ± 0.9. For the same compound, in assay [1] (Table II), the “[125I]RTI-55 Binding in HEK hDAT Membranes Hill slope” value is recorded as −2.16 ± −0.89. Further, the IC50 is 1.82 ± 0.819 µM in assay [2] (setting [16]), more than 10 µM in assay [4] (setting [9]) and more than 10 µM in assay [6].

Turning to `CC(Cc1cccc(C(F)(F)F)c1)NC(/C=C/c1ccccc1)C(=O)O` (stereo not shown) [RNH-Z-58], the results for the Ki in assay [1] (setting [7]), in assay [3] and in assay [5] (setting [12]) were more than 10 µM, more than 10 µM and more than 10000 nM, respectively. Besides, the IC50 in assay [2] (setting [8]), in assay [4] (setting [9]) and in assay [6] was more than 10 µM throughout.

With `O=C(O)C(/C=C/c1ccccc1)C1CCN(CCOC(c2ccc(F)cc2)c2ccc(F)cc2)CC1` (stereo not shown) [ZHN-93], the Ki was 0.727 ± 0.291 µM in assay [1] (setting [13]), 0.727 ± 0.291 µM in assay [1] (setting [15]), more than 10 µM in assay [3] and 4540 ± 1540 nM in assay [5] (setting [10]). Moreover, the “Hill Coefficient” value in assay [1] (setting [14]) is recorded as −1.0 ± 0.3. The “[125I]RTI-55 Binding in HEK hDAT Membranes Hill slope” value in assay [1] (Table II) is on record as −1.02 ± 0.30. The values for the IC50 in assay [2] (setting [16]), in assay [4] (setting [11]) and in assay [6] were 0.182 ± 0.059 µM, 0.117 ± 0.02 µM and more than 10 µM, respectively. In assay [5], the “[125I]RTI-55 Binding in HEK-hNET Membranes Hill slope” value is reported as −1.78 ± 0.65.

Turning to `CN(C)C(=O)C(/C=C/c1ccccc1)N1CCC(c2ccccc2)CC1` (stereo not shown) [RNH-Z-28], the Ki was 3.92 ± 1.25 µM in assay [1] (setting [13]), 3.92 ± 1.25 µM in assay [1] (setting [15]), more than 10 µM in assay [3] and more than 10000 nM in assay [5] (setting [12]). Also, the “Hill Coefficient” value in assay [1] (setting [14]) is −2.1 ± 0.6. In assay [1] (Table II), the “[125I]RTI-55 Binding in HEK hDAT Membranes Hill slope” value is −2.09 ± 0.60. In addition, the 50% inhibitory concentration (IC50) in assay [2] (setting [16]) was 4.04 ± 1.63 µM; in assay [4] (setting [11]), 0.211 ± 0.065 µM; in assay [6], more than 10 µM.

`O=C(O)C(/C=C/c1ccccc1)N1CCN(CCOC(c2ccccc2)c2ccccc2)CC1` (stereo not shown) [ZHN-94]: the Ki in assay [1] (setting [13]) was 2.78 ± 1.25 µM; in assay [1] (setting [15]), 2.78 ± 1.25 µM; in assay [3], more than 10 µM; in assay [5] (setting [12]) it was more than 10000 nM. The “Hill Coefficient” value in assay [1] (setting [14]) was −0.8 ± 0.2. In addition, in assay [1] (Table II), the “[125I]RTI-55 Binding in HEK hDAT Membranes Hill slope” value was −0.78 ± 0.17. For the same compound, the results for the IC50 in assay [2] (setting [16]), in assay [4] (setting [11]) and in assay [6] were 0.385 ± 0.111 µM, 2.19 ± 0.47 µM and more than 10 µM, respectively.
